# Measurements from PubChem BioAssay AID1963961 (Molecular Pharmacology Branch, DTP, NCI, 2024).
# System: K98450-129-R-PDC multicell spheroids, viability
# Test: Anticancer human tumor K98450-129-R-PDC patient-derived colon adenocarcinoma cell line growth inhibition [PI3K]
# Conditions: for IC50: curve of first compound; for viability, T/C: stronger effect = lower value
# Method in brief: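 Targeted small molecules plus PI3K inhibitors, half-log dose series from Cmax (default top 10 microM), were applied to heterotypic spheroids of cancer cells with HUVEC and MSCs. Viability indicated growth inhibition.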
# [1] = second compound 0.00316 µM, first compound 0.0316 µM
# [2] = second compound 0.00316 µM, first compound 0.1 µM
# [3] = second compound 0.00316 µM, first compound 0.316 µM
# [4] = second compound 0.00316 µM, first compound 1 µM
# [5] = second compound 0.00316 µM, first compound 3.16 µM
# [6] = second compound 0.00316 µM, first compound 10 µM
# [7] = second compound 0.01 µM, first compound 0.0316 µM
# [8] = second compound 0.01 µM, first compound 0.1 µM
# [9] = second compound 0.01 µM, first compound 0.316 µM
# [10] = second compound 0.01 µM, first compound 1 µM
# [11] = second compound 0.01 µM, first compound 3.16 µM
# [12] = second compound 0.01 µM, first compound 10 µM
# [13] = second compound 0.0316 µM, first compound 0.0316 µM
# [14] = second compound 0.0316 µM, first compound 0.1 µM
# [15] = second compound 0.0316 µM, first compound 0.316 µM
# [16] = second compound 0.0316 µM, first compound 1 µM
# [17] = second compound 0.0316 µM, first compound 3.16 µM
# [18] = second compound 0.0316 µM, first compound 10 µM
# [19] = second compound 0.1 µM, first compound 0.0316 µM
# [20] = second compound 0.1 µM, first compound 0.1 µM
# [21] = second compound 0.1 µM, first compound 0.316 µM
# [22] = second compound 0.1 µM, first compound 1 µM
# [23] = second compound 0.1 µM, first compound 3.16 µM
# [24] = second compound 0.1 µM, first compound 10 µM
# [25] = second compound 0.316 µM, first compound 0.0316 µM
# [26] = second compound 0.316 µM, first compound 0.1 µM
# [27] = second compound 0.316 µM, first compound 0.316 µM
# [28] = second compound 0.316 µM, first compound 1 µM
# [29] = second compound 0.316 µM, first compound 3.16 µM
# [30] = second compound 0.316 µM, first compound 10 µM
# [31] = second compound 1 µM, first compound 0.0316 µM
# [32] = second compound 1 µM, first compound 0.1 µM
# [33] = second compound 1 µM, first compound 0.316 µM
# [34] = second compound 1 µM, first compound 1 µM
# [35] = second compound 1 µM, first compound 3.16 µM
# [36] = second compound 1 µM, first compound 10 µM
# 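Further: spheroids exposed to agents for seven days before read-out.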
compound,measurement,setting,value
C#Cc1c(F)ccc2cc(O)cc(-c3ncc4c(N5CC6CCC(C5)N6)nc(OCC56CCCN5CC(F)C6)nc4c3F)c12 (stereo not drawn) + COc1c(OCCCN2CCOCC2)ccc2c3n(c(=NC(=O)c4cnc(N)nc4)nc12)CCN3,IC50,second compound 0.00316 µM,> 10 µM
same,IC50,second compound 0.01 µM,> 10 µM
same,IC50,second compound 0.0316 µM,> 10 µM
same,IC50,second compound 0.1 µM,> 10 µM
same,IC50,second compound 0.316 µM,> 10 µM
same,IC50,second compound 1 µM,2.44 µM
same,"viability, T/C",[1],114%
same,"viability, T/C",[2],108%
same,"viability, T/C",[3],110%
same,"viability, T/C",[4],90%
same,"viability, T/C",[5],89.1%
same,"viability, T/C",[6],81.7%
same,"viability, T/C",[7],122%
same,"viability, T/C",[8],113%
same,"viability, T/C",[9],99.9%
same,"viability, T/C",[10],101%
same,"viability, T/C",[11],100%
same,"viability, T/C",[12],79.5%
same,"viability, T/C",[13],91.6%
same,"viability, T/C",[14],101%
same,"viability, T/C",[15],76%
same,"viability, T/C",[16],81.7%
same,"viability, T/C",[17],85.6%
same,"viability, T/C",[18],74.3%
same,"viability, T/C",[19],64%
same,"viability, T/C",[20],65.7%
same,"viability, T/C",[21],80.8%
same,"viability, T/C",[22],71%
same,"viability, T/C",[23],75.8%
same,"viability, T/C",[24],64.3%
same,"viability, T/C",[25],60.8%
same,"viability, T/C",[26],58%
same,"viability, T/C",[27],67.3%
same,"viability, T/C",[28],62.6%
same,"viability, T/C",[29],49.1%
same,"viability, T/C",[30],47.9%
same,"viability, T/C",[31],54.6%
same,"viability, T/C",[32],66%
same,"viability, T/C",[33],53.9%
same,"viability, T/C",[34],51.2%
same,"viability, T/C",[35],50.9%
same,"viability, T/C",[36],25.8%
CC(Cn1ccc(-c2ccc(C#N)c(Cl)c2)n1)NC(=O)c1cc(C(C)O)[nH]n1 (stereo not drawn) + COc1c(OCCCN2CCOCC2)ccc2c3n(c(=NC(=O)c4cnc(N)nc4)nc12)CCN3,IC50,second compound 0.00316 µM,> 10 µM
same,IC50,second compound 0.01 µM,> 10 µM
same,IC50,second compound 0.0316 µM,> 10 µM
same,IC50,second compound 0.1 µM,> 10 µM
same,IC50,second compound 0.316 µM,> 10 µM
same,IC50,second compound 1 µM,4.9 µM
same,"viability, T/C",[1],102%
same,"viability, T/C",[2],97.7%
same,"viability, T/C",[3],117%
same,"viability, T/C",[4],104%
same,"viability, T/C",[5],107%
same,"viability, T/C",[6],111%
same,"viability, T/C",[7],116%
same,"viability, T/C",[8],95%
same,"viability, T/C",[9],105%
same,"viability, T/C",[10],102%
same,"viability, T/C",[11],90.7%
same,"viability, T/C",[12],89.5%
same,"viability, T/C",[13],88.9%
same,"viability, T/C",[14],92.9%
same,"viability, T/C",[15],80.5%
same,"viability, T/C",[16],89.6%
same,"viability, T/C",[17],93.1%
same,"viability, T/C",[18],75.8%
same,"viability, T/C",[19],74.9%
same,"viability, T/C",[20],79%
same,"viability, T/C",[21],82.1%
same,"viability, T/C",[22],95.2%
same,"viability, T/C",[23],90%
same,"viability, T/C",[24],71.1%
same,"viability, T/C",[25],47.2%
same,"viability, T/C",[26],59.4%
same,"viability, T/C",[27],64.2%
same,"viability, T/C",[28],62.1%
same,"viability, T/C",[29],72.1%
same,"viability, T/C",[30],43.6%
same,"viability, T/C",[31],48.5%
same,"viability, T/C",[32],59.8%
same,"viability, T/C",[33],63.2%
same,"viability, T/C",[34],52.1%
same,"viability, T/C",[35],54.2%
same,"viability, T/C",[36],44%
CC1(C)CCC(Nc2ncc(C(F)(F)F)c(-c3c[nH]c4c(P(C)(C)=O)c(C#N)ccc34)n2)CN1 (stereo not drawn) + COc1c(OCCCN2CCOCC2)ccc2c3n(c(=NC(=O)c4cnc(N)nc4)nc12)CCN3,IC50,second compound 0.00316 µM,> 10 µM
same,IC50,second compound 0.01 µM,> 10 µM
same,IC50,second compound 0.0316 µM,6.6 µM
same,IC50,second compound 0.1 µM,9.23 µM
same,IC50,second compound 0.316 µM,4.72 µM
same,IC50,second compound 1 µM,0.0316 µM
same,"viability, T/C",[1],104%
same,"viability, T/C",[2],99.5%
same,"viability, T/C",[3],66.3%
same,"viability, T/C",[4],60.1%
same,"viability, T/C",[5],60.3%
same,"viability, T/C",[6],52.9%
same,"viability, T/C",[7],113%
same,"viability, T/C",[8],103%
same,"viability, T/C",[9],67.3%
same,"viability, T/C",[10],61.6%
same,"viability, T/C",[11],67.3%
same,"viability, T/C",[12],48.8%
same,"viability, T/C",[13],94.6%
same,"viability, T/C",[14],77.5%
same,"viability, T/C",[15],68.5%
same,"viability, T/C",[16],69.4%
same,"viability, T/C",[17],61.6%
same,"viability, T/C",[18],42.7%
same,"viability, T/C",[19],79.6%
same,"viability, T/C",[20],86.6%
same,"viability, T/C",[21],63.7%
same,"viability, T/C",[22],69%
same,"viability, T/C",[23],68.7%
same,"viability, T/C",[24],46.1%
same,"viability, T/C",[25],58.3%
same,"viability, T/C",[26],64%
same,"viability, T/C",[27],59%
same,"viability, T/C",[28],54.7%
same,"viability, T/C",[29],57.8%
same,"viability, T/C",[30],37.3%
same,"viability, T/C",[31],51.6%
same,"viability, T/C",[32],48.9%
same,"viability, T/C",[33],48.8%
same,"viability, T/C",[34],42.7%
same,"viability, T/C",[35],50.7%
same,"viability, T/C",[36],27.2%
Cn1cnc2c(F)c(Nc3ccc(Br)cc3Cl)c(C(=O)NOCCO)cc21 + Cc1nc(NC(=O)N2CCCC2C(N)=O)sc1-c1ccnc(C(C)(C)C(F)(F)F)c1,IC50,second compound 0.0316 µM,1.26 µM
same,IC50,second compound 0.1 µM,1.03 µM
same,IC50,second compound 0.316 µM,0.998 µM
same,IC50,second compound 1 µM,0.694 µM
same,IC50,second compound 3.16 µM,0.434 µM
same,IC50,second compound 10 µM,0.165 µM
same,"viability, T/C","second compound 0.0316 µM, first compound 0.00949 µM",95.2%
same,"viability, T/C","second compound 0.0316 µM, first compound 0.03 µM",87.1%
same,"viability, T/C","second compound 0.0316 µM, first compound 0.0949 µM",91.9%
same,"viability, T/C","second compound 0.0316 µM, first compound 0.3 µM",78.3%
same,"viability, T/C","second compound 0.0316 µM, first compound 0.949 µM",61.2%
same,"viability, T/C","second compound 0.0316 µM, first compound 3 µM",17.2%
same,"viability, T/C","second compound 0.1 µM, first compound 0.00949 µM",107%
same,"viability, T/C","second compound 0.1 µM, first compound 0.03 µM",89.1%
same,"viability, T/C","second compound 0.1 µM, first compound 0.0949 µM",84.7%
same,"viability, T/C","second compound 0.1 µM, first compound 0.3 µM",77%
same,"viability, T/C","second compound 0.1 µM, first compound 0.949 µM",54.3%
same,"viability, T/C","second compound 0.1 µM, first compound 3 µM",15.6%
same,"viability, T/C","second compound 0.316 µM, first compound 0.00949 µM",89%
same,"viability, T/C","second compound 0.316 µM, first compound 0.03 µM",89.2%
same,"viability, T/C","second compound 0.316 µM, first compound 0.0949 µM",79.1%
same,"viability, T/C","second compound 0.316 µM, first compound 0.3 µM",71.2%
same,"viability, T/C","second compound 0.316 µM, first compound 0.949 µM",53.5%
same,"viability, T/C","second compound 0.316 µM, first compound 3 µM",11.2%
same,"viability, T/C","second compound 1 µM, first compound 0.00949 µM",85.3%
same,"viability, T/C","second compound 1 µM, first compound 0.03 µM",82.4%
same,"viability, T/C","second compound 1 µM, first compound 0.0949 µM",78.9%
same,"viability, T/C","second compound 1 µM, first compound 0.3 µM",67.2%
same,"viability, T/C","second compound 1 µM, first compound 0.949 µM",43.5%
same,"viability, T/C","second compound 1 µM, first compound 3 µM",8.14%
same,"viability, T/C","second compound 3.16 µM, first compound 0.00949 µM",76.8%
same,"viability, T/C","second compound 3.16 µM, first compound 0.03 µM",74.1%
same,"viability, T/C","second compound 3.16 µM, first compound 0.0949 µM",71.3%
same,"viability, T/C","second compound 3.16 µM, first compound 0.3 µM",58.5%
same,"viability, T/C","second compound 3.16 µM, first compound 0.949 µM",32.1%
same,"viability, T/C","second compound 3.16 µM, first compound 3 µM",4.89%
same,"viability, T/C","second compound 10 µM, first compound 0.00949 µM",63.1%
same,"viability, T/C","second compound 10 µM, first compound 0.03 µM",61.1%
same,"viability, T/C","second compound 10 µM, first compound 0.0949 µM",60.3%
same,"viability, T/C","second compound 10 µM, first compound 0.3 µM",39.4%
same,"viability, T/C","second compound 10 µM, first compound 0.949 µM",10.3%
same,"viability, T/C","second compound 10 µM, first compound 3 µM",2.85%
